In ChEMBL document CHEMBL1121757, “Alpha-adrenergic agents. 1. Direct-acting alpha 1 agonists related to methoxamine” (J Med Chem, 1981):

Assays:
[1] = molecular target: T1, Alpha-1A adrenergic receptor (Homo sapiens, UniProt P35348); assay: Alpha-1 adrenergic receptor agonist activity in rabbit ear artery; format: functional, tissue-based, Oryctolagus cuniculus; settings: target entry is the homologue from another species
T1 sequence (P35348 whole entry): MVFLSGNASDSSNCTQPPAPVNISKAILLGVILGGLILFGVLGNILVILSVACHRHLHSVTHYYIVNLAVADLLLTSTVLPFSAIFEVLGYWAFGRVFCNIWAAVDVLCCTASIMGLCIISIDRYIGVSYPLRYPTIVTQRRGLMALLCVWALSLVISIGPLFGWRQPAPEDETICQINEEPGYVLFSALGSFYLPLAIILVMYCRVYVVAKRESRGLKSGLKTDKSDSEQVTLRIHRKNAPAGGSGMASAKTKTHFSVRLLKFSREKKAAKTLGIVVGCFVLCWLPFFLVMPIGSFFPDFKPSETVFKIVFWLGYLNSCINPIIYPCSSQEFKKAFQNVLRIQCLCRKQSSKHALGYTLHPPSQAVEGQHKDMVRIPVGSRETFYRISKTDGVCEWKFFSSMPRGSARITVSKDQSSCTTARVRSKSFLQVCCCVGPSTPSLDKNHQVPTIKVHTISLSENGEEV

Oryctolagus cuniculus = species: Oryctolagus cuniculus; assay: Phentolamine dissociation constant was evaluated in rabbit ear artery; format: functional

**Q.** How did the EC50 [1] turn out when `COc1ccc(OC)c2c1CCNC2` was run?
**A.** Its EC50 is > 30000 nM.

**Q.** For `COc1ccc(OC)c2c1CC(N)C2`, which EC50 [1] is on record?
**A.** The EC50 was 30000 nM.

**Q.** With `COc1ccc(OC)c2c1CCCC(N)C2` (centres undefined) as the compound, how does the EC50 [1] read?
**A.** The EC50 was 5300 nM.

**Q.** And the Kb (Oryctolagus cuniculus)?
**A.** Its Kb is 11 nM.

**Q.** How did the EC50 [1] turn out when `COc1ccc(OC)c2c1CC1C2[C@@H]1N` (some centres undefined) was run?
**A.** Its EC50 is 340 nM.

**Q.** And the Kb (Oryctolagus cuniculus)?
**A.** Its Kb is 8.4 nM.

**Q.** For `COc1ccc(OC)c2c1C1CCC2[C@@H](N)C1` (some centres undefined), which EC50 [1] is on record?
**A.** The EC50 was 30000 nM.

**Q.** `COc1ccc(OC)c2c1C1CCC2[C@H](N)C1` (some centres undefined) was tested. Which EC50 [1] did it give?
**A.** The EC50 was 30000 nM.

**Q.** With `COc1ccc(OC)c2c1CC[C@H]1NCCCC21` (some centres undefined) as the compound, how does the EC50 [1] read?
**A.** The EC50 was 170 nM.

**Q.** And the Kb (Oryctolagus cuniculus)?
**A.** The Kb was 11 nM.

**Q.** Which EC50 [1] does the source give for `COc1ccc(OC)c(CCN)c1` here?
**A.** Its EC50 is 11000 nM.

**Q.** And the Kb (Oryctolagus cuniculus)?
**A.** The Kb was 54 nM.

**Q.** `NC1CCc2ccccc2C1` (centres undefined) was tested. Which EC50 [1] did it give?
**A.** The EC50 was > 30000 nM.

**Q.** Which EC50 [1] does the source give for `COc1ccc(OC)c2c1CCC(N)C2` (centres undefined) here?
**A.** Its EC50 is 120 nM.

**Q.** And the Kb (Oryctolagus cuniculus)?
**A.** Its Kb is 6 nM.

**Q.** `COc1ccc(OC)c2c1CC[C@@H]1NCCCC21` (some centres undefined) was tested. Which EC50 [1] did it give?
**A.** Its EC50 is 200 nM.

**Q.** And the Kb (Oryctolagus cuniculus)?
**A.** Its Kb is 14.7 nM.

**Q.** What does the source list for `COc1ccc(OC)c(C(O)C(C)N)c1` (centres undefined) [METHOXAMINE]?
**A.** EC50 [1]: 720 nM; Kb (Oryctolagus cuniculus): 9.8 nM
